# Test results taken from patent publication US11203591B2, “Substituted 6-azabenzimidazole compounds” (Gilead Sciences, Inc., priority 2018, dated 2021).
# Target: human HPK1 (MAP4K1) (Homo sapiens (Human), UniProt Q92918)
# Assay: HPK1 IC50 Assay (TR-FRET peptide phosphorylation)
# Type: biochemical
# Conditions: 0.15 nM HPK1, 10 μM ATP, 1 μM STK S1 peptide substrate; geometric mean
# Procedure, shortened: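 Pre-activated, dually phosphorylated baculovirus-expressed HPK1 kinase domain (0.15 nM) preincubated 15 min with compound, then reacted 3 h at 25° C with 10 μM ATP and 1 μM STK S1 peptide in BES pH 7.0 buffer. Phosphopeptide read by TR-FRET (665/620 nm); four-parameter fit, geometric-mean IC50.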
# Chain of human HPK1 (MAP4K1) (Q92918 17-274): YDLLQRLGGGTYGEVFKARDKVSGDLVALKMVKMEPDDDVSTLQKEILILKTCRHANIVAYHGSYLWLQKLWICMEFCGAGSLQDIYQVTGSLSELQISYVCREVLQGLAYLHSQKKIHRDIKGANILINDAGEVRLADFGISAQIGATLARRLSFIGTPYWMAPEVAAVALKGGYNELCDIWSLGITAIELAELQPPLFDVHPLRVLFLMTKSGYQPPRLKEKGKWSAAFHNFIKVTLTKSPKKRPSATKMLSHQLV
row,IC50 [nM],Structure (SMILES)
1,0.08,"CC(C)n1cnc2cc(-c3ccc4c(c3)N([C@H]3C[C@@](C)(N5CCCCC5)C3)C(=O)C4(C)C)nc(Nc3cc(C(=O)NCC(F)F)c(Cl)c(F)c3F)c21 [Example 287, 2-chloro-N-(2,2-difluoroethyl)-5-((6-(3,3-dimethyl-1-((1s,3s)-3-methyl-3-(piperidin-1-yl)cyclobutyl)-2-oxoindolin-6-yl)-3-isopropyl-3H-imidazo[4,5-c]pyridin-4-yl)amino)-3,4-difluorobenzamide]"
2,0.07,"CC(C)n1cnc2cc(-c3ccc4c(c3)N([C@H]3C[C@@](C)(N5CCCCC5)C3)C(=O)C4(C)C)nc(Nc3cc(C(=O)NC4(CF)CC4)c(Cl)c(F)c3F)c21 [Example 292, 2-chloro-5-((6-(3,3-dimethyl-1-((1s,3s)-3-methyl-3-(piperidin-1-yl)cyclobutyl)-2-oxoindolin-6-yl)-3-isopropyl-3H-imidazo[4,5-c]pyridin-4-yl)amino)-3,4-difluoro-N-(1-(fluoromethyl)cyclopropyl)benzamide]"

# Same assay, conditions: recombinant HPK1 kinase domain 0.15 nM, 10 μM ATP, 1 μM STK S1 peptide; geometric mean of multiple experiments
row,IC50 [nM],Structure (SMILES)
1,0.1,CC(=O)N1CCC2(CC1)C(=O)N([C@H]1C[C@@H](N3CCCCC3)C1)c1cc(-c3cc4ncn(C(C)C)c4c(Nc4cc(C(=O)NC5CC5)c(C)cc4F)n3)ccc12 [Example 91]
2,0.3,CNC(=O)c1cc(Nc2nc(-c3ccc4c(c3)N([C@H]3C[C@@H](NC(C)C)C3)C(=O)C4(C)C)cc3ncn(C(C)C)c23)c(F)cc1C [Example 14]
3,0.2,Cc1cc(F)c(Nc2nc(-c3ccc4c(c3)N([C@H]3C[C@@H](N5CCCCC5)C3)C(=O)C43CCOCC3)cc3ncn(C(C)C)c23)cc1C(=O)NC(C)C [Example 125]
4,0.08,CCC(=O)N1CCC2(CC1)C(=O)N([C@H]1C[C@@H](N3CCCCC3)C1)c1cc(-c3cc4ncn(C(C)C)c4c(Nc4cc(C(=O)NC(C)C)c(C)cc4F)n3)ccc12 [Example 53]
5,0.2,"CC[C@H](C)n1cnc2cc(-c3ccc4c(c3)N([C@H]3C[C@@H](N5CCC[C@@H](F)C5)C3)C(=O)C43CCN(C(C)=O)CC3)nc(Nc3ccc(C)c(C(=O)NC)c3)c21 [Example 157, 5-((6-(1′-acetyl-1-((1S,3R)-3-((R)-3-fluoropiperidin-1-yl)cyclobutyl)-2-oxospiro[indoline-3,4′-piperidin]-6-yl)-3-((S)-sec-butyl)-3H-imidazo[4,5-c]pyridin-4-yl)amino)-N,2-dimethylbenzamide]"
6,0.1,"CNC(=O)c1cc(Nc2nc(-c3ccc4c(c3)N([C@H]3C[C@@H](N5CCCCC5)C3)C(=O)C43CCN(C(=O)C(C)(C)O)CC3)cc3ncn(C(C)C)c23)ccc1C [Example 146, 5-((6-(1′-(2-hydroxy-2-methylpropanoyl)-2-oxo-1-((1s,3s)-3-(piperidin-1-yl)cyclobutyl)spiro[indoline-3,4′-piperidin]-6-yl)-3-isopropyl-3H-imidazo[4,5-c]pyridin-4-yl)amino)-N,2-dimethylbenzamide]"
7,0.2,COCCNC(=O)c1cc(Nc2nc(-c3ccc4c(c3)N([C@H]3C[C@@H](N5CCCCC5)C3)C(=O)C43CCN(C(C)=O)CC3)cc3ncn(C(C)C)c23)ccc1C [Example 131]
8,0.2,"Cc1cc(F)c(Nc2nc(-c3cnc4c(c3)N([C@H]3C[C@@](C)(N5CCCCC5)C3)CC4(C)C)cc3ncn(C(C)C)c23)cc1C(=O)NC1(C(F)F)CC1 [Example 219, N-(1-(Difluoromethyl)cyclopropyl)-5-((6-(3,3-dimethyl-1-((1s,3s)-3-methyl-3-(piperidin-1-yl)cyclobutyl)-2,3-dihydro-1H-pyrrolo[3,2-b]pyridin-6-yl)-3-isopropyl-3H-imidazo[4,5-c]pyridin-4-yl)amino)-4-fluoro-2-methylbenzamide]"
9,0.06,"Cc1c(C(=O)NC2(C(F)F)CC2)cc(Nc2nc(-c3cnc4c(c3)N([C@H]3C[C@@](C)(N5CCCC6(CC6)C5)C3)C(=O)C4(C)C)cc3ncn(C(C)C)c23)c(F)c1F [Example 194, N-(1-(Difluoromethyl)cyclopropyl)-5-((6-(3,3-dimethyl-1-((1s,3s)-3-methyl-3-(5-azaspiro[2.5]octan-5-yl)cyclobutyl)-2-oxo-2,3-dihydro-1H-pyrrolo[3,2-b]pyridin-6-yl)-3-isopropyl-3H-imidazo[4,5-c]pyridin-4-yl)amino)-3,4-difluoro-2-methylbenzamide]"
10,0.08,"Cc1c(C(=O)NC2(C(F)F)CC2)cc(Nc2nc(-c3cnc4c(c3)N([C@H]3C[C@@](C)(N5CC6CCC6C5)C3)C(=O)C4(C)C)cc3ncn(C(C)C)c23)c(F)c1F (some centres unmarked) [Example 209, 5-((6-(1-((1s,3s)-3-(3-Azabicyclo[3.2.0]heptan-3-yl)-3-methylcyclobutyl)-3,3-dimethyl-2-oxo-2,3-dihydro-1H-pyrrolo[3,2-b]pyridin-6-yl)-3-isopropyl-3H-imidazo[4,5-c]pyridin-4-yl)amino)-N-(1-(difluoromethyl)cyclopropyl)-3,4-difluoro-2-methylbenzamide]"
11,0.3,"CC(C)n1cnc2cc(-c3cnc4c(c3)N([C@H]3C[C@@](C)(N5CC6CC6C5)C3)C(=O)C4(C)C)nc(Nc3cc(C(=O)NC4(C(F)F)CC4)c(Cl)c(F)c3F)c21 (some centres unmarked) [Example 234, 5-((6-(1-((1s,3s)-3-(3-Azabicyclo[3.1.0]hexan-3-yl)-3-methylcyclobutyl)-3,3-dimethyl-2-oxo-2,3-dihydro-1H-pyrrolo[3,2-b]pyridin-6-yl)-3-isopropyl-3H-imidazo[4,5-c]pyridin-4-yl)amino)-2-chloro-N-(1-(difluoromethyl)cyclopropyl)-3,4-difluorobenzamide]"
12,0.09,"Cc1c(C(=O)NC2(C(F)F)CC2)cc(Nc2nc(-c3cnc4c(c3)N([C@H]3C[C@@](C)(N5CCCOCC5)C3)C(=O)C4(C)C)cc3ncn(C(C)C)c23)c(F)c1F [Example 208, N-(1-(Difluoromethyl)cyclopropyl)-5-((6-(3,3-dimethyl-1-((1s,3s)-3-methyl-3-(1,4-oxazepan-4-yl)cyclobutyl)-2-oxo-2,3-dihydro-1H-pyrrolo[3,2-b]pyridin-6-yl)-3-isopropyl-3H-imidazo[4,5-c]pyridin-4-yl)amino)-3,4-difluoro-2-methylbenzamide]"
13,0.2,CNC(=O)c1cc(Nc2nc(-c3ccc4c(c3)N([C@H]3C[C@@H](N5CCCCC5)C3)C(=O)C43CCN(C(C)=O)CC3)cc3ncn(C4CC4)c23)ccc1Cl [Example 47]

row,Structure (SMILES),IC50 [nM]
1,"Cc1c(C(=O)NC2(C(F)F)CC2)cc(Nc2nc(-c3cnc4c(c3)N(C3CC(C)(N5CCC6C[C@@H]6C5)C3)C(=O)C4(C)C)cc3ncn(C(C)C)c23)c(F)c1F (some centres unmarked) [Example 231, 5-((6-(1-((1s,3s)-3-(3-Azabicyclo[4.1.0]heptan-3-yl)-3-methylcyclobutyl)-3,3-dimethyl-2-oxo-2,3-dihydro-1H-pyrrolo[3,2-b]pyridin-6-yl)-3-isopropyl-3H-imidazo[4,5-c]pyridin-4-yl)amino)-N-(1-(difluoromethyl)cyclopropyl)-3,4-difluoro-2-methylbenzamide]",0.1
2,CNC(=O)c1cc(Nc2nc(-c3ccc4c(c3)N([C@H]3C[C@@H](N5CCCCC5)C3)C(=O)C43CCN(CC(F)F)CC3)cc3ncn(C(C)C)c23)c(F)cc1C [Example 61],0.2
